The results in this text go back to patent US11746102B2, “Polymorphs of selinexor” (Karyopharm Therapeutics Inc., priority 2014, dated 2023).

The nature of this series: Solubility assessment (visual) of selinexor in solvents and solvent mixtures. The following applies: any of the MTBE:heptane mixtures investigated. The series is classed as physicochemical.

Turning to `O=C(/C=C\n1cnc(-c2cc(C(F)(F)F)cc(C(F)(F)F)c2)n1)NNc1cnccn1` [Selinexor, (Z)-3-(3-(3,5-bis(trifluoromethyl)phenyl)-1H-1,2,4-triazol-1-yl)-N′-(pyrazin-2-yl)acrylohydrazide], the Solubility was above 100 volumes.
